Results as given in US6458781B1, “Substituted diarylalkyl amides as calcium channel antagonists” (priority 1998, dated 2002).
Structures can show the parent of a compound that is named as a salt.

Tests used:
[1] = biological target: T1, L-type calcium channels in A10 cells (Rattus norvegicus, UniProt P22002); assay: L-type Ca2+ channel blocking potency in A10 cells (FLIPR); type: cell-based; conditions: read-out: FLPA10 IC50
T1 construct: which endogenously expresses L-type calcium channels; host or cells: A10 rat embryonic thoracic aorta smooth muscle cells
Description: Measurement of L-type Ca^2+ Channel Blocking Potencies of Compounds in A10 Cells
Calcium flux through voltage-sensitive calcium channels was assessed by time-resolved monitoring of the fluorescence of pre-loaded calcium-sensitive dyes using FLIPR, a fluorescent image plate reader (Molecular Devices Co.). The A10 smooth muscle cell line derived from embryonic thoracic aorta of the DBIX rat (ATCC, CRL-1476) which endogenously expresses L-type calcium channels. The growth media for A10 cells was Ham's F12/DME high glucose (Irvine Scientific, 9052), supplemented with 20% fetal bovine serum (HyClone Labs, A-1115-L), and 1% each of L-glutamine and antibiotic-antimycotic (same source as above).
Cells were grown to confluency and replated on black-sided 96-well plates (Costar, 3603) for use in FLIPR. Two days after replating, growth media was removed and cells were loaded at 37° C. with 100 μL media containing 1 μM Oregon Green 488 Bapta-1 dye (Molecular Probes, O-6807) for 1 to 3 hours. The dye-containing media was then washed away with buffer (composition in mM: 1.25 CaCl2, 1.2 MgSO4, 11 glucose, 10 HEPES, 3.0 KCl, 137.0 NaCl, pH 7.4 with Tris base) in a Denley Cellwash (Labsystems, CW018B). The residual buffer volume was adjusted to 50 μL. A 5 minute drug-pre-incubation period at 35° C. was initiated when 50 μL of drug-containing buffer was pipetted into the cell plate with the 96-well pipettor integrated in the FLIPR apparatus. Fluorescent counts were monitored at 20 second intervals for 360 seconds, beginning 60 seconds prior to the delivery of drug-containing buffer. Following drug addition, 100 μL aliquots of a high K^+, depolarizing stimulus (composition in mM: 1.25 CaCl2, 1.2 MgSO4, 11 glucose, 10 HEPES, 140.0 KCl, pH 7.4 with Tris base) were added to each well, and fluorescence was monitored at 1 second intervals for 120 seconds beginning 10 seconds prior to the stimulus addition. CCD camera exposure time was 0.4 seconds, laser excitation was at 488 nm with a power of 0.2-0.5W, and a 510 to 560 nm bandpass interference filter preceded the camera.
Data was analyzed as a summation of fluorescent counts above basal during the stimulation period (an approximation of area under the curve), after normalizing the data with a spatial uniformity correction (for variations in laser illumination and cell density) and a negative control correction (zero calcium increase defined as the fluorescence reading in the presence of saturating pharmacologic block of the respective calcium channel). Drug effects were expressed as percent inhibition of fluorescence from an average of 8 K^+-stimulated wells which were pre-treated in the drug incubation period with buffer only. In the A10 cells, the pharmacologic agent used to define zero calcium influx was nitrendipine (RBI, N-144) at a final concentration of 1.0×10^−6 M.

[2] = biological target: T2, N-type calcium channels in IMR-32 cells (Homo sapiens, UniProt Q00975); assay: N-type Ca2+ channel blocking potency in IMR-32 cells using Indo-1; type: cell-based; conditions: for IC50: IMR-32 cells, estimated from two data points, read-out: IMR32 IC50 (estimated IC50 values based on two data points); for inhibition at 1 µM / inhibition at 10 µM: IMR-32, IMR-32 cells; for inhibition at 1 µM: read-out: IMR32 % blockage at 1 μM; for inhibition at 10 µM: read-out: IMR32 % blockage at 10 μM
T2 construct: host or cells: IMR-32 cells differentiated with dibutyryl cAMP and bromodeoxyuridine
Description: Measurement of N-type Ca^2+ Channel Blocking Potencies of Compounds in IMR-32 Cells Using the Fluorescent Ca^2+ Indicator Indo-1
IMR-32 cells are a human tumoral cell line of neural origin. […] Calcium flux into these cells may be induced by stimulation with elevated potassium concentrations. The L-channel component of calcium flux may be blocked by adding 5 μM nitrendipine. The remaining component of calcium entry into the IMR-32 cells is due to calcium flux through N-type calcium channels. Intracellular calcium concentrations are measured using the fluorescent calcium indicator Indo-1. The effect of drug concentration on calcium uptake is studied.
The IMR-32 cell line was obtained from the American Type Culture Collection (Rockville, Md.). Cells were grown in Eagle's Minimum Essential Medium with Earle's salts supplemented with 10% fetal bovine serum, 2 mM L-Gln and antibiotic/antimycotic mixture (Gibco). At approximately 80% confluency, differentiation was induced by the addition of 1 mM dibutyryl cAMP and 2.5 μM bromodeoxyuridine to the medium. After 7 to 13 days of differentiation, cells were detached using 0.5 mM EDTA and loaded with 5 μM Indo-1 acetoxymethyl ester (Molecular Probes, Eugene, Oreg.) at 30° C. for 45 minutes. Loaded cells were washed twice, resuspended (˜10^7 cells/mL) in assay buffer (10 mM HEPES/Tris pH 7.4 in Hank's Balanced Salt Solution without bicarbonate or phenol red containing 0.5% bovine serum albumin) and kept on ice until use. Fluorescence measurements were carried out in a Photon Technology International (PTI, South Brunswick, N.J.) Model RF-F3004 spectrofluorometer with dual emission monochromators using excitation at 350 nm and emission at 400 and 490 nm. The instrument was equipped with a thermostated cuvette holder with stirring capabilities as well as with a computer-controlled pump which allowed for reagent addition during measurement. Instrument control and data collection was done by PTI's OSCAR software running on an IBM compatible computer. Different concentrations of the test compounds (60 μL in dimethyl sulfoxide) were added to 5.94 mL of assay buffer containing approximately 3×10^6 loaded cells, and 5 μM Nitrendipine (in 30 μL EtOH) to block L-type Ca^2+ channels. Samples were incubated for 10 minutes at 30° C. and the aliquot into three 10×10 mm disposable acrylic cuvettes. Emission signals at 400 and 490 nm were acquired from each cuvette at 30° C. for 50 seconds. At 20 seconds after the start of reading, cells were depolarized by the addition of 160 μL of stimulation solution (1 M KCl, 68 mM CaCl2) to the cuvette via the computer-controlled pump. Ratio of dual emission signals (400/490 nm), which is proportional to intracellular Ca^2+ concentration, was plotted against time, and the difference between maximal response after stimulation and basal value (before stimulation) was determined. Values obtained in this way were plotted as a function of drug concentration. IC50 values of test compounds were calculated by fitting a four-parameter logistic function to the data using the least squares method.

T1 sequence (P22002 whole entry): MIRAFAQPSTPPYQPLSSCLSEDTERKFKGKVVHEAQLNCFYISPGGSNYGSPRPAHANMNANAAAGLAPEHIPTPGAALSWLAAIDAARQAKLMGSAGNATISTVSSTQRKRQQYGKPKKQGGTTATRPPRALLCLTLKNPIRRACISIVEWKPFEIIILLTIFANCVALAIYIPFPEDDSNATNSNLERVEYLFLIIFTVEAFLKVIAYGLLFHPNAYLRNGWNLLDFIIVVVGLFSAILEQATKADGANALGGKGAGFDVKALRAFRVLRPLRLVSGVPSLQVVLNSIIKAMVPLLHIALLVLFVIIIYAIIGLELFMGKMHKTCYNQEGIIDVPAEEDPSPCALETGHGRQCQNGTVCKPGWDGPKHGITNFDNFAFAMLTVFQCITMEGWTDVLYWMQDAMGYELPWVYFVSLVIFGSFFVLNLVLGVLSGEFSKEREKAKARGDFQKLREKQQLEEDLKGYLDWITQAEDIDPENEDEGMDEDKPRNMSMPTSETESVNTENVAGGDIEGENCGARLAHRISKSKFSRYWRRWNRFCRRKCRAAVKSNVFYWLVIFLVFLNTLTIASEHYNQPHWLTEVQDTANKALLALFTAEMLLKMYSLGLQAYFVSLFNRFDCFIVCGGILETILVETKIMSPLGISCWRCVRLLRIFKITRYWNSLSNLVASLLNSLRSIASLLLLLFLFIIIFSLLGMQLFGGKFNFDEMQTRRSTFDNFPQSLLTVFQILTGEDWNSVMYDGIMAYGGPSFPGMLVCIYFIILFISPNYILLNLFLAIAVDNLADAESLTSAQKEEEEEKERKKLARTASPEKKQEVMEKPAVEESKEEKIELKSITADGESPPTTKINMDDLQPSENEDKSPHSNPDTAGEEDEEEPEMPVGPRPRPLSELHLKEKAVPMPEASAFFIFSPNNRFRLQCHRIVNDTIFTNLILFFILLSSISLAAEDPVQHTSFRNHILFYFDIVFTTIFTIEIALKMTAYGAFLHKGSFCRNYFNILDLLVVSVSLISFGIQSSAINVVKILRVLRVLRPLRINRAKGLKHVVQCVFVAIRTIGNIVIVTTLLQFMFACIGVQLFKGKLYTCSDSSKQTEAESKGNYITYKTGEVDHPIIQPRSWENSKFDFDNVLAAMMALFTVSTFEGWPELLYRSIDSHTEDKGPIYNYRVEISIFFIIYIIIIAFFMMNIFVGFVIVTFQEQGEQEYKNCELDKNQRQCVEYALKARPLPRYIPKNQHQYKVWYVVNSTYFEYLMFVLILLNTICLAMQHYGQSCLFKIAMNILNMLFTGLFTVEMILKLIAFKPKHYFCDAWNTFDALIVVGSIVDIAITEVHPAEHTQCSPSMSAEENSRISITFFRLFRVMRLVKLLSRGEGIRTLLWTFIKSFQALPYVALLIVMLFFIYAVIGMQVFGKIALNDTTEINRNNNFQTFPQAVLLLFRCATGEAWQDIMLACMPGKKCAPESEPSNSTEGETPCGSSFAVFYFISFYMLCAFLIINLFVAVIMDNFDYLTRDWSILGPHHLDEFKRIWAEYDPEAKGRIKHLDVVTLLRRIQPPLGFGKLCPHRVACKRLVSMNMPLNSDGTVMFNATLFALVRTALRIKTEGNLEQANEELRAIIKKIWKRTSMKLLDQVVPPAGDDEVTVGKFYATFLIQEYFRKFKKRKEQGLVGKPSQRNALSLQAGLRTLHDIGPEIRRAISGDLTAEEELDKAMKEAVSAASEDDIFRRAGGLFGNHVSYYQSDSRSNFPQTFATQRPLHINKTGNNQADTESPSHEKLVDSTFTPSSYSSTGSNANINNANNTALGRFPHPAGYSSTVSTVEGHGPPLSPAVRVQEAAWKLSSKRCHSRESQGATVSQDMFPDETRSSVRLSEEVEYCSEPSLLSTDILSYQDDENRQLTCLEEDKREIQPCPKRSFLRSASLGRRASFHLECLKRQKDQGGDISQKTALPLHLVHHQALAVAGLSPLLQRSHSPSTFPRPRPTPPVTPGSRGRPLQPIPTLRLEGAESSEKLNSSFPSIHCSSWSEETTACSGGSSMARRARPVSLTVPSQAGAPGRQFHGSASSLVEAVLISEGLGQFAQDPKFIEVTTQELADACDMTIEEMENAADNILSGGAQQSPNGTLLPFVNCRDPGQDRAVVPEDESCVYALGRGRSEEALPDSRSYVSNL
T1 sequence (P54290 25-944 partner limits assumed): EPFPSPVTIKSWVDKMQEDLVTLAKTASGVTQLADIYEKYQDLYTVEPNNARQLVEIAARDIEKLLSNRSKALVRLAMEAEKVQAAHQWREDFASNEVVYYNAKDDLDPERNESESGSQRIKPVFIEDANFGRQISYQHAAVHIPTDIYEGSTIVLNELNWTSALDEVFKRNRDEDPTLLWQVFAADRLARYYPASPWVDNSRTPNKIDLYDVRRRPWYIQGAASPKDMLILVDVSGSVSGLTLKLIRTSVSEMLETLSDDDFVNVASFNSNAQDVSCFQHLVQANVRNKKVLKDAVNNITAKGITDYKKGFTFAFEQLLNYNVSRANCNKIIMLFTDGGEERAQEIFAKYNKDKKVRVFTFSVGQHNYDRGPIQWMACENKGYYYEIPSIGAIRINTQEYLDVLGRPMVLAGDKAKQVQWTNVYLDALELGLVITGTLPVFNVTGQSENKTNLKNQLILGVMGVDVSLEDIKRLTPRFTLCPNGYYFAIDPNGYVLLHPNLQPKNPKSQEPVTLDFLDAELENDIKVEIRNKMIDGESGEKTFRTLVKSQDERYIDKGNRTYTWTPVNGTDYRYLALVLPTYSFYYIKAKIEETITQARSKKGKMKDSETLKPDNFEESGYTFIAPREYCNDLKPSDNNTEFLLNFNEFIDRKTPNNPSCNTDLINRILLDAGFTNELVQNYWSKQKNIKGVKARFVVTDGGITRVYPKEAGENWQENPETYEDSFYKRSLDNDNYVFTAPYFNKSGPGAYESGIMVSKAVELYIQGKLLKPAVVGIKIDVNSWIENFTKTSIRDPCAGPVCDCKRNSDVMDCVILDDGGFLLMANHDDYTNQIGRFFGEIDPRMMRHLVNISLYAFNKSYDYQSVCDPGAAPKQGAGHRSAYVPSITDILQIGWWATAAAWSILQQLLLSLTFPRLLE
T1 sequence (P54290 945-1091 partner limits assumed): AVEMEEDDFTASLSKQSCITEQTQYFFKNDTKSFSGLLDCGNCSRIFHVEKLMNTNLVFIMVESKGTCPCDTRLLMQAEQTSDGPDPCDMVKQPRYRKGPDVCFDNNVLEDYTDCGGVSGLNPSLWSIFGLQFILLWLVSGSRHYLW
T1 sequence (P54287 whole entry partner): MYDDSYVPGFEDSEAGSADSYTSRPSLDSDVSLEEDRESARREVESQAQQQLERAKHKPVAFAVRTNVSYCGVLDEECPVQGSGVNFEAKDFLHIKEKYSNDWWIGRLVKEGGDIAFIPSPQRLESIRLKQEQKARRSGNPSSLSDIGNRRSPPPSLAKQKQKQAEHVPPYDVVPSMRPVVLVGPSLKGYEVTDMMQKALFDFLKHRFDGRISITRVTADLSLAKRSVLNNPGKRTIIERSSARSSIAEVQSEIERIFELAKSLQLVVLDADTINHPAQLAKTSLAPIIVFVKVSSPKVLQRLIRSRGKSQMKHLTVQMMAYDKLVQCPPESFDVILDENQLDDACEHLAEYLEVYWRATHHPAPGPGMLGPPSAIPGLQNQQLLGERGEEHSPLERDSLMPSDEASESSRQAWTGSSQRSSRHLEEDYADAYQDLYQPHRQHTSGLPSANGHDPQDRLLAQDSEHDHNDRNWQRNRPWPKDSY

Compound	IC50 [1] [nM]	IC50 [2] [nM]	inhibition at 1 µM [2] [%]	inhibition at 10 µM [2] [%]
CC(C)C[C@@H](NC(=O)N1CCCCCC1)C(=O)NCCCC(c1ccc(F)cc1)c1ccc(F)cc1 [Example 2, (R)-Azepane-1-carboxylic acid {1-[4,4-bis-(4-fluoro-phenyl)-butylcarbamoyl]-3-methyl-butyl}-amide]	290	–	–	–
CC(C)C[C@H](NC1CCOCC1)C(=O)NCCCC(c1ccc(F)cc1)c1ccc(F)cc1 [Example 18, (S)-4-Methyl-2-(tetrahydro-pyran-4-ylamino)-pentanoic acid [4,4-bis-(4-fluoro-phenyl)-butyl]-amide]	570	2000	–	–
CC(C)C[C@H](NC(C)C)C(=O)NCCCC(c1ccc(F)cc1)c1ccc(F)cc1 [Example 19, (S)-2-Isopropylamino-4-methyl-pentanoic acid [4,4-bis-(4-fluoro-phenyl)-butyl]-amide monohydrochloride]	660	1100	–	–
CC(C)C[C@@H](C(=O)NCCCC(c1ccc(F)cc1)c1ccc(F)cc1)N(C)C1CCCCC1 [Example 21, (S)-2-(Cyclohexyl-methyl-amino)-4-methyl-pentanoic acid [4,4-bis-(4-fluoro-phenyl)-butyl]-amide monohydrochloride]	270	–	71	94
CC(C)C[C@@H](C(=O)NCCC(c1ccccc1)c1ccccc1)N(C)C1CCCCC1 [Example 25, (S)-2-(Cyclohexyl-methyl-amino)-4-methyl-pentanoic acid (3,3-diphenyl-propyl)-amide monohydrochloride]	800	990	–	–
CC(C)C[C@@H](C(=O)NCCCC(c1ccc(F)cc1)c1ccc(F)cc1)N(C)C1CCOCC1 [Example 27, (S)-4-Methyl-2-[methyl-(tetrahydro-pyran-4-yl)-amino]-pentanoic acid [4,4-bis-(4-fluoro-phenyl)-butyl]-amide monohydrochloride]	450	1200	–	–
CC(C)N[C@H](C(=O)NCCCC(c1ccc(F)cc1)c1ccc(F)cc1)C(C)C [Example 65, (S)-N-[4,4-Bis-(4-fluoro-phenyl)-butyl]-2-isopropylamino-3-methyl-butyramide]	680	–	–	83
CCC(C)N[C@H](C(=O)NCCCC(c1ccc(F)cc1)c1ccc(F)cc1)C(C)C (stereo partly drawn) [Example 66, (S)-N-[4,4-Bis-(4-fluoro-phenyl)-butyl]-2-sec-butylamino-3-methyl-butyramide]	510	–	34	94
CC(C)C[C@@H](C(=O)NCCCC(c1ccc(F)cc1)c1ccc(F)cc1)N(C)C(C)C [Example 68, (S)-2-(Isopropyl-methyl-amino)-4-methyl-pentanoic acid [4,4-bis-(4-fluoro-phenyl)-butyl]-amide]	530	–	–	97
CC(C)[C@@H](C(=O)NCCCC(c1ccc(F)cc1)c1ccc(F)cc1)N(C)C1CCCCC1 [Example 69, (S)-N-[4,4-Bis-(4-fluoro-phenyl)-butyl]-2-(cyclohexyl-methyl-amino)-3-methyl-butyramide]	400	–	34	99

The remaining lines, values ahead:

IC50 [1] [nM]	IC50 [2] [nM]	inhibition at 1 µM [2] [%]	inhibition at 10 µM [2] [%]	Compound
470	–	25	92	CC(C)C[C@@H](C(=O)NCCCC(c1ccc(F)cc1)c1ccc(F)cc1)N(C)C [Example 20, (S)-2-Dimethylamino-4-methyl-pentanoic acid [4,4-bis-(4-fluoro-phenyl)-butyl]-amide monohydrochloride]
130	–	35	89	CC(C)C[C@@H](C(=O)NCCCC(c1ccc(F)cc1)c1ccc(F)cc1)N1CCOCC1 [Example 23, (S)-4-Methyl-2-morpholin-4-yl-pentanoic acid [4,4-bis-(4-fluoro-phenyl)-butyl]-amide monohydrochloride]
630	1890	–	–	CC(C)C[C@@H](NC(=O)N1CCCCCC1)C(=O)N1CCN(C(c2ccc(F)cc2)c2ccc(F)cc2)CC1 [Example 34, (R)-Azepane-1-carboxylic acid {1-(4-[bis-(4-fluoro-phenyl)-methyl]-piperazine-1-carbonyl}-3-methyl-butyl)-amide]
360	500	–	–	CC(C)C[C@@H](CN1CCN(C(c2ccc(F)cc2)c2ccc(F)cc2)CC1)NC(=O)OC(C)(C)C [Example 35, (S)-(1-{4-[Bis-(4-fluoro-phenyl)-methyl]-piperazin-1-ylmethyl}-3-methyl-butyl)-carbamic acid tert-butyl ester]
1400	2000	–	–	CC(C)C[C@@H](C(=O)N1CCN(C(c2ccc(F)cc2)c2ccc(F)cc2)CC1)N1CCCCC1 [Example 37, (S)-1-{4-[Bis-(4-fluoro-phenyl)-methyl]-piperazin-1-yl}-4-methyl-2-piperidin-1-yl-pentan-1-one]
1000	3200	–	–	CC(C)C[C@H](NC(C)C)C(=O)N1CCN(C(c2ccc(F)cc2)c2ccc(F)cc2)CC1 [Example 49, (S)-1-{4-[Bis-(4-fluoro-phenyl)-methyl]-piperazin-1-yl}-2-isopropylamino-4-methyl-pentan-1-one monohydrochloride]
420	–	–	99	CC(C)C[C@H](NCc1ccccc1)C(=O)N1CCN(C(c2ccc(F)cc2)c2ccc(F)cc2)CC1 [Example 62, (S)-2-Benzylamino-1-{4-[bis-(4-fluoro-phenyl)-methyl]-piperazin-1-yl}-4-methyl-pentan-1-one]
1100	–	–	–	CC(C)C[C@H](NC1CCOCC1)C(=O)N1CCN(C(c2ccc(F)cc2)c2ccc(F)cc2)CC1 [Example 63, (S)-1-{4-[Bis-(4-fluoro-phenyl)-methyl]-piperazin-1-yl}-4-methyl-2-(tetrahydro-pyran-4-ylamino)-pentan-1-one]
